Measurements as given in patent US6057314A, “Low molecular weight bicyclic thrombin inhibitors” (Biochem Pharma Inc., priority 1997, dated 2000).
“And” between values parts separate entries of the source, which are not always exact repeats. Equal values may be shown once. Read-outs that look alike come from different tables or passages of the source.

What was measured:
human thrombin [1] = target: T1, human thrombin (Homo sapiens, UniProt P00734); assay: Fibrin clot assay (human plasma, turbidity); type: biochemical; details: Table 1, 1 nM thrombin, at 30 minutes
Description: The fibrin clot assay was performed essentially as described by Krtenansky et al, FEBS, 1987, 211:10. A serial dilution of the inhibitor was prepared in 50 mM tri HCl buffer (pH 7.8 at 23° C.) containing 0.1 M NaCl and 0.1% (w/v) polyethylene glycol 8000. Human plasma (60 μL, collected in 3.8% sodium citrate, blood/anticoagulate 9:1) was added to microtiter wells (microtiter plate, Falcon) containing 100 μL of various inhibitor dilutions. The solution was mixed after which 50 μL of human thrombin (1 nM final conc.) was added and mixed for 15 seconds. The turbidity of the clot was immediately monitored by microplate autoreader (Dynateck MR 5000) at 405 nm and recorded every 3 min. The maximal turbidity in the absence of inhibitors was reached within 60 min. IC50 values were calculated at 30 minutes as the inhibitor concentration that gave half the optical density of the control.

human thrombin [2] = target: T1, human thrombin; assay: Inhibition of amidolytic activity of human thrombin (Ki, fluorogenic substrate Tos-Gly-Pro-Arg-AMC); type: biochemical
Description: In an assay to determine the inhibitory dissociation constant, Ki, for a given compound, a chromogenic or fluorogenic substrate of thrombin would be added to a solution containing a test compound and thrombin; the resulting catalytic activity of the enzyme would be spectrophotometrically determined. This type of assay is well known to those skilled in the art.
Determination of K1 Values for Heterocyclics
The steady-state velocity was then measured for a few minutes. The compounds of this invention were also pre-incubated with thrombin for 20 minutes at room temperature before adding the substrate.

human thrombin [3] = target: T1, human thrombin; assay: dTT assay (fibrin clotting assay, human thrombin and bovine fibrinogen); type: biochemical; details: concentration required to double the clotting time
Source text: The clotting time was plotted against the inhibitor concentrations and the IC50 was estimated as the inhibitor concentration required to double the clotting time relative to the control.

carotid artery in rats = assay: FeCl3 induced carotid arterial injury model (arterial thrombosis) in rats, time to occlusion; type: in vivo, rat (Sprague-Dawley); details: Table 2
Description: Arterial Thrombosis Model
FeCl3 Induced Carotid Arterial Injury Model
Animals were laid on a 37° C. heating pad. The carotid artery was exposed through a midline cervical incision. Careful blunt dissection was used to isolate the vessel from the carotid sheath. […] A temperature probe (Physitemp*MT23/3) was placed between one of the pieces of tubing and the artery. Injury was induced by topical application on the carotid artery above the temperature probe of a small disc (3 mm dia.) of Whatman* No. 1 filter paper previously dipped in a 35% solution of FeCl3 […]. The vessel temperature was monitored for 60 minutes after application of FeCl3 as an indication of blood flow.
The time between the FeCl3 application and the time at which the vessel temperature decreased abruptly (>2.4° C.) was recorded as the time to occlusion of the vessel. Inhibitor compounds were given as an iv bolus (mg/kg) followed immediately by an iv infusion (μg/kg/min. via femoral vein). The dose of inhibitor needed to double the time to occlusion in comparison to control animals in which injury was induced in the absence of inhibitor was determined.

[4] = test system: washed platelets from rats; assay: Platelet secretion (14C-serotonin, 5-HT, release from washed rat platelets, thrombin stimulated); type: cell-based; details: Table 1, human thrombin 0.1 IU/mL, read-out: Antiplatelet activity, 5-HT Secretion (IC50)
Description: Platelet Aggregation and Secretion Rat blood was collected into ACD (6/1 v/v) by cardiac puncture. Suspensions of washed platelets were prepared as described by […] et al, (Br. J. Haematol. 1970, 19:7 and Proc. Soc. Exp. Biol. Med. 1971, 136:1021). […] Platelet counts were adjusted to 5000,000/ μL. To permit measurement of the extent of release of the contents of the dense granules, the platelets were labelled in the first washing solution with ^14 C-serotonin (5-HT) (1 μCi/10 mL of washing fluid) and release of ^14 C-serotonin was determined as described in Holmsen et al, (Enzymology, 1989, 169:206). […] (5 μM final conc.) was added to present the reuptake of released serotonin. Platelet aggregation was recorded at 37° C. in an aggregometer (BioData PAP-4) at a stirring speed of 1,100 rpm by measuring the variations of light transmission. […] IC50 values represent the concentration that was necessary to inhibit platelet aggregation or secretion to 50% of the control.

[5] = test system: washed platelets from rats; assay: Platelet aggregation (washed rat platelets, thrombin stimulated); type: cell-based; details: Table 1, suspension of washed platelets from rats, human thrombin 0.1 IU/mL, read-out: Antiplatelet activity, Aggregation (IC50)
Description: Platelet Aggregation and Secretion Rat blood was collected into ACD (6/1 v/v) by cardiac puncture. Suspensions of washed platelets were prepared as described by […] et al, (Br. J. Haematol. 1970, 19:7 and Proc. Soc. Exp. Biol. Med. 1971, 136:1021). […] Platelet counts were adjusted to 5000,000/ μL. Platelet aggregation was recorded at 37° C. in an aggregometer (BioData PAP-4) at a stirring speed of 1,100 rpm by measuring the variations of light transmission. […] IC50 values represent the concentration that was necessary to inhibit platelet aggregation or secretion to 50% of the control.

[6] = Table 1, read-out: Ki (inhibitory dissociation constant for human thrombin)
[7] = ivb + inf 0.75-50 (iv bolus mg/kg, infusion μg/kg/min)
[8] = ivb + inf 0.5-30 (iv bolus mg/kg, infusion μg/kg/min)

| Structure (SMILES) | Ki (human thrombin [2]; [6]) [nM] | Ki (human thrombin [2]; Table 2, read-out: Ki) | M.O.T (min)+/-sem (carotid artery in rats; [7]) | further results |
| --- | --- | --- | --- | --- |
| N=C(N)NCCCC(NC(=O)C1CSC2CCC(NC(=O)CCc3ccccc3)C(=O)N21)C(=O)c1nccs1 (stereo not drawn) [Compound 0315b] | – | 10 nM | 30.33 ± 8.4 min | – |
| N=C(N)NCCCC(NC(=O)[C@@H]1CSC[C@H]2CC[C@@H](Cc3ccccc3)C(=O)N21)C(=O)c1nccs1 (single isomer, unassigned) [Compound 0925a] | – | 7 nM | 20.3 ± 3.5 min | – |
| N=C(N)NCCCC(NC(=O)[C@@H]1CS[C@@H]2CC[C@@H](Cc3ccccc3)C(=O)N21)C(=O)c1nccs1 (stereo partly drawn) [Compound 0245, 6-Benzyl-5-oxo-hexahydro-thiazolo[3,2-a]pyridine-3-carboxylic acid[4-guanidino-1-(thiazole-2-carbonyl)butyl]-amide] | – | 5 nM and 8 nM | 22.6 ± 2.6 min | M.O.T (min)+/-sem (carotid artery in rats; [8]): 27 ± 3 min |
| CCCC(=O)C(CCCNC(=N)N)NC(=O)[C@@H]1CSC2CC[C@@H](Cc3ccccc3)C(=O)N21 (stereo partly drawn) [Compound 0005, 6S-benzylhexahydro-5-oxo-5H-thiazolo[3,2-a]pyridine-3R-carboxamido (propyl ketoarginine)] | 4000 | – | – | IC50 (human thrombin [1]): > 450000 nM; IC50 (human thrombin [3]; Table 1, read-out: dTT IC50): 47000 nM |
| N=C(N)NCCCC(NC(=O)[C@@H]1CSC2CC[C@@H](CC3CCCCC3)C(=O)N21)C(=O)CCC(=O)N[C@@H](Cc1ccccc1)C(=O)N[C@@H](CCCNC(=N)N)C(N)=O (stereo partly drawn) [Compound 0090, 6S-cyclohexylmethylhexahydro-5-oxo-5H-thiazolo[3,2-a]pyridine-3R-carboxamido((propylketo)Arg--Phe--Arg--NH2)] | 31 | – | – | IC50 (human thrombin [3]; Table 1, read-out: dTT IC50): 330 nM |
| N=C(N)NCCCC(NC(=O)[C@@H]1CSCC2CCCC(=O)N21)C(=O)c1nccs1 (stereo partly drawn) [Compound 0915, 6-Oxo-octahydro-pyrido[2,1-c][1,4]thiazine-4-carboxylic acid[4-guanidino-1-(thiazole-2-carbonyl)-butyl]-amide] | – | 1600 nM | 15+/-1,3 min | – |
| N=C(N)NCCCC(NC(=O)[C@@H]1CS[C@H]2CC[C@@H](Cc3ccccc3)C(=O)N21)C(=O)c1nc2ccccc2s1 (stereo partly drawn) [Compound 0210, 6-Benzyl-5-oxo-hexahydro-thiazolo[3,2-a]pyridine-3-carboxylic acid[1-(benzothiazole-2-carbonyl)-4-guanidino-butyl]-amide] | – | 8 nM | 20.13 ± 3.4 min | – |
| N=C(N)NCCCC(NC(=O)[C@@H]1CSCC2CC[C@@H](Cc3ccccc3)C(=O)N21)C(=O)c1nccs1 (stereo partly drawn) [0925a + b] | – | 10 nM | 19.6 ± 0.2 min | – |
| N=C(N)NCCCC(NC(=O)C1CSC2CCC(N3C(=O)c4ccccc4C3=O)C(=O)N21)C(=O)c1nccs1 (single isomer, unassigned) [Compound 0295a] | – | 1500 nM | 20 ± 1 min | – |
| N=C(N)NCCC[C@H](NC(=O)[C@@H]1CSC2CC[C@@H](CC3CCCCC3)C(=O)N21)C(=O)N1CCC(C(N)=O)CC1 (stereo partly drawn) [Compound 0045, 6S-cyclohexylmethylhexahydro-5-oxo-5H-thiazolo[3,2-a]pyridine-3R-carboxamido((S)Argisonipecotamide)] | 74000 | – | – | IC50 (human thrombin [1]): > 450000 nM; IC50 (human thrombin [3]; Table 1, read-out: dTT IC50): 415000 nM |
| N=C(N)NCCCC(NC(=O)[C@@H]1CC[C@H]2CN(C(=O)c3ccccc3)CC(=O)N21)C(=O)c1nccs1 (stereo partly drawn) [Compound 0335, 2-Benzoyl-4-oxo-octahydro-pyrrolo[1,2-a]pyrazine-6-carboxylic acid[4-guanidino-1-(thiazole-2-carbonyl)-butyl]-amide] | – | 25 nM | 45.8 ± 14.2 min | M.O.T (min)+/-sem (carotid artery in rats; [8]): 41.5 ± 7.27 min; IC50 (human thrombin [3]; Table 2, read-out: dTT): 138 nM |
| N=C(N)NCCCC(NC(=O)[C@@H]1CS[C@@H]2CC[C@@H](CCCC3CCCCC3)C(=O)N21)C(=O)c1nccs1 (single isomer, unassigned) [Compound 0265b] | – | 18 nM | 14.83 ± 2.3 min | – |

Continued, in another order:

| Ki (human thrombin [2]; [6]) [nM] | Ki (human thrombin [2]; Table 2, read-out: Ki) | Structure (SMILES) | M.O.T (min)+/-sem (carotid artery in rats; [7]) | further results |
| --- | --- | --- | --- | --- |
| 62000 | – | N=C(N)NCCCC(NC(=O)[C@@H]1CSC2CC[C@@H](Cc3ccccc3)C(=O)N21)C1(CCCCC(N)=O)SCCS1 (stereo partly drawn) [Compound 0050, 6S-benzylhexahydro-5-oxo-5H-thiazolo[3,2-a]pyridine-3R-carboxamido(carboxamidopentylcyclodithioketalarginine)] | – | IC50 (human thrombin [1]): > 450000 nM |
| 19000 | – | COC(=O)CCC(=O)C(CCCNC(=N)N)NC(=O)[C@@H]1CSC2CC[C@@H](Cc3ccccc3)C(=O)N21 (stereo partly drawn) [Compound 0100, 6S-benzylhexahydro-5-oxo-5H-thiazolo[3,2-a]pyridine-3R-carboxamido(propylcarbmethoxyketoarginine)] | – | IC50 (human thrombin [3]; Table 1, read-out: dTT IC50): 165000 nM |
| – | 0.6 nM | N=C(N)NCCCC(NC(=O)[C@@H]1CC[C@H]2CN(C(=O)CCc3ccccc3)CC(=O)N21)C(=O)c1nccs1 (stereo partly drawn) [Compound 0340, 4-Oxo-2-(3-phenyl-propionyl)-octahydro-pyrrolo[1,2-a]-pyrazine-6-carboxylic acid [4-guanidino-1-(thiazole-2-carbonyl)-butyl]-amide] | – | M.O.T (min)+/-sem (carotid artery in rats; ivb + inf 0.25-20 (iv bolus mg/kg, infusion μg/kg/min)): 36+/-9,6 min |
| – | 16 nM | N=C(N)NCCCC(NC(=O)[C@@H]1CSC[C@H]2CC[C@@H](CCc3ccccc3)C(=O)N21)C(=O)c1nccs1 (single isomer, unassigned) [Compound 0940a] | 15.2 ± 0.82 min | – |
| – | 18 nM | C[C@]12CC[C@@H](Cc3ccc4nc(C(F)(F)F)ccc4c3)C(=O)N1[C@H](C(=O)NC(CCCNC(=N)N)C(=O)c1nc3ccccc3s1)CS2 (stereo partly drawn) [Compound 0240, 8a-Methyl-5-oxo-6-(2-trifluoromethyl-quinolin-6-ylmethyl)-hexahydro-thiazolo[3,2-a]pyridine-3-carboxylic acid[1-(benzothiazole-2-carbonyl)-4-guanidino-butyl]-amide] | 17 ± 2.6 min | – |
| 48 | – | N=C(N)NCCCC(NC(=O)[C@@H]1CSC2CC[C@@H](CC3CCCCC3)C(=O)N21)C(=O)C[n+]1ccc2ccccc2c1 (stereo partly drawn) [Compound 0080, 6S-cyclohexylmethylhexahydro-5-oxo-5H-thiazolo[3,2-a]pyridine-3R-carboxamido(iso-quinoliniummethylketoarginine)] | – | IC50 [4]: 380 nM; IC50 [5]: 400 nM; IC50 (human thrombin [3]; Table 1, read-out: dTT IC50): 375 nM |
| – | 2 nM | Cc1cnc(C(=O)C(CCCNC(=N)N)NC(=O)[C@@H]2CC[C@H]3CN(C(=O)CCc4ccccc4)CC(=O)N32)s1 (stereo partly drawn) [Compound 0345, 4-Oxo-2-(3-phenyl-propionyl)-octahydro-pyrrolo[1,2-a]pyrazine-6-carboxylic acid[4-guanidino-1-(5-methyl-thiazole-2-carbonyl)-butyl]-amide] | 50 ± 5.86 min | – |
